According to PMC5100899 (Journal of medicinal chemistry, 2016):
In brackets after ≈: the same amount, converted by molar mass. Where two headings read alike, the source gives them in different places.

Legend:
HepG2 = HepG2 growth inhibition; format: cell-based; conditions: Homo sapiens, HepG2, read-out: human cells, GI50 HepG2
CRL-8155 = CRL-8155 growth inhibition; format: cell-based; conditions: Homo sapiens, CRL8155, read-out: human cells, GI50 CRL-8155
Src = Src (Homo sapiens, UniProt P12931); experiment: Src tyrosine kinase inhibition; format: biochemical
Src, sequence (P12931 whole entry, species assumed): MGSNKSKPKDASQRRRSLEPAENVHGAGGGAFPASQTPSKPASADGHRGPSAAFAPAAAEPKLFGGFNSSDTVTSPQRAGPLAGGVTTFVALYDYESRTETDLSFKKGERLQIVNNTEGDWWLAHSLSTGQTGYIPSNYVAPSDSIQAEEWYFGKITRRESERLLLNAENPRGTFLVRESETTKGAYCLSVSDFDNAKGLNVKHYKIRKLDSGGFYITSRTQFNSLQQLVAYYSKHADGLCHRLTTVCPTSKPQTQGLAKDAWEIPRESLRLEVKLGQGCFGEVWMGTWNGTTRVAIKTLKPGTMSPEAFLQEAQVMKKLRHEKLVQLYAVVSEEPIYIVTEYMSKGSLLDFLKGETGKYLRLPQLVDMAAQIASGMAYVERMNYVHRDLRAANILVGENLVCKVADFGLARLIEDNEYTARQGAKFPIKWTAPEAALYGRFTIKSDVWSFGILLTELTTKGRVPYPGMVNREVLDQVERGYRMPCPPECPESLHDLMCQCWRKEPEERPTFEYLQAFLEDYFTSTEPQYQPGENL

hERG = hERG (Homo sapiens, UniProt Q12809)
hERG, sequence (Q12809 whole entry): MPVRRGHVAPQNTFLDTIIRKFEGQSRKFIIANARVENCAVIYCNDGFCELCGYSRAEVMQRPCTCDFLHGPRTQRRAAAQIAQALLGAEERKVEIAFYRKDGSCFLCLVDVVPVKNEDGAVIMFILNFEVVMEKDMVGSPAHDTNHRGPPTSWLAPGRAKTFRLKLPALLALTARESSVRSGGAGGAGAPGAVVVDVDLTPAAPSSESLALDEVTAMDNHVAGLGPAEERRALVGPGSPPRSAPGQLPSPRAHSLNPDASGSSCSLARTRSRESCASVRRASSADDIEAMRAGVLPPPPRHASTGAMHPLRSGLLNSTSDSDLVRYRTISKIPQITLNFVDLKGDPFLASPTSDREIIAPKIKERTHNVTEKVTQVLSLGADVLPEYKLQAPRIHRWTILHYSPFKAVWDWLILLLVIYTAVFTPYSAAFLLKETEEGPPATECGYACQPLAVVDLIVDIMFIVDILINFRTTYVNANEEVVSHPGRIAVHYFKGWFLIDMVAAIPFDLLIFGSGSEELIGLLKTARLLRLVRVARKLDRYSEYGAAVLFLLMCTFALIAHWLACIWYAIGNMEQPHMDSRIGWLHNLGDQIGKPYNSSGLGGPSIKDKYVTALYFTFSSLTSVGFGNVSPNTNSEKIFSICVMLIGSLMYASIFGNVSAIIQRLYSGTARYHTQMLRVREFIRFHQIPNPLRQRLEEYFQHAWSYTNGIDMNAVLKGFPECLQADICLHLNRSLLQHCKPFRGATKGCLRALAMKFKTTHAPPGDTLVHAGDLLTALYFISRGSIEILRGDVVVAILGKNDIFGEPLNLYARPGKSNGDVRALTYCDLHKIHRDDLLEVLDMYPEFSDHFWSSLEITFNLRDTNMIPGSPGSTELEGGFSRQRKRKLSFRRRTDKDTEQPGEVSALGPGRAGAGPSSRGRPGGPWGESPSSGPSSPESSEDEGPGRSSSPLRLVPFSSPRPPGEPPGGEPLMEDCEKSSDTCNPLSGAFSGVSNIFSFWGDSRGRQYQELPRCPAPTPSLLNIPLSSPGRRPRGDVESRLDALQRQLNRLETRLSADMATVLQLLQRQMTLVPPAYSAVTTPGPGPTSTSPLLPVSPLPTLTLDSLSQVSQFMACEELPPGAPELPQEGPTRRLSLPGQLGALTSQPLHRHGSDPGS

[1] = phosphate-buffered saline, pH 6.5
physchem = conditions: phosphate-buffered saline, pH 6.5, Solubility
in vitro = conditions: mouse

SMILES	GI50 (HepG2) [µM]	IC50 (Src) [µM]	solubility [1] [µM]	solubility (physchem) [µM]	GI50 (CRL-8155) [µM]	lower activity against hERG than 1 (hERG) [fold]	EC50 (in vitro) [µM]
CCOc1ccc2cc(-c3nn(CC4CN(C)C4)c4ncnc(N)c34)ccc2c1 [Compound 6]	> 10	> 10	–	–	> 10	–	–
CCOc1ccc2cc(-c3nn(CC4CCN(C(C)C)CC4)c4ncnc(N)c34)ccc2c1 [Compound 7]	> 10	> 10	–	–	> 10	–	–
CCOc1ccc2cc(-c3nn(CC4CCN(C(C)=O)CC4)c4ncnc(N)c34)ccc2c1 [Compound 8]	> 10	–	–	–	> 10	–	–
CN1CCC(Cn2nc(-c3ccc4cc(OC5CCC5)ccc4c3)c3c(N)ncnc32)CC1 [Compound 11, 3-(6-Cyclobutoxynaphthalen-2-yl)-1-((1-methylpiperidin-4-yl)methyl)-1H-pyrazolo[3,4-d]pyrimidin-4-amine]	> 10	> 10	–	–	> 10	–	–
CN1CCC(Cn2nc(-c3ccc4cc(OC5CC5)ccc4c3)c3c(N)ncnc32)CC1 [Compound 12, 3-(6-Cyclopropoxynaphthalen-2-yl)-1-((1-methylpiperidin-4-yl)methyl)-1H-pyrazolo[3,4-d]pyrimidin-4-amine]	–	> 10	–	–	> 10	–	–
COCCOc1ccc2cc(-c3nn(CC4CCN(C)CC4)c4ncnc(N)c34)ccc2c1 [Compound 13, 3-(6-(2-Methoxyethoxy)naphthalen-2-yl)-1-((1-methylpiperidin-4-yl)methyl)-1H-pyrazolo[3,4-d]pyrimidin-4-amine]	> 10	> 10	–	–	> 10	–	–
CN1CCC(Cn2nc(-c3ccc4cc(OC5COC5)ccc4c3)c3c(N)ncnc32)CC1 [Compound 14, 1-((1-Methylpiperidin-4-yl)methyl)-3-(6-(oxetan-3-yloxy)naphthalen-2-yl)-1H-pyrazolo[3,4-d]pyrimidin-4-amine]	> 10	> 10	–	–	> 10	–	–
CN1CCC(Cn2nc(-c3ccc4cc(OCC(C)(C)O)ccc4c3)c3c(N)ncnc32)CC1 [Compound 16, 1-(6-(4-Amino-1-((1-methylpiperidin-4-yl)methyl)-1H-pyrazolo[3,4-d]pyrimidin-3-yl)naphthalen-2-yloxy)-2-methylpropan-2-ol]	> 10	> 10	–	–	> 10	–	–
CN(C)CC(C)(C)Cn1nc(-c2ccc3nc(OC4CC4)ccc3c2)c2c(N)ncnc21 [Compound 20, 3-(2-Cyclopropoxyquinolin-6-yl)-1-(3-(dimethylamino)-2,2-dimethylpropyl)-1H-pyrazolo[3,4-d]pyrimidin-4-amine]	> 10	> 10	–	–	> 10	–	–
CCOc1ccc2cc(-c3nn(CC(C)C)c4ncnc(N)c34)ccc2c1 [Compound 21, 3-(6-Ethoxynaphthalen-2-yl)-1-isobutyl-1H-pyrazolo[3,4-d]pyrimidin-4-amine]	> 10	> 10	–	–	> 10	–	–
CC(C)Cn1nc(-c2ccc3cc(OC4CC4)ccc3c2)c2c(N)ncnc21 [Compound 22, 3-(6-Cyclopropoxynaphthalen-2-yl)-1-isobutyl-1H-pyrazolo[3,4-d]pyrimidin-4-amine]	–	–	–	–	> 10	–	–
CC1(Cn2nc(-c3ccc4nc(OC5CC5)ccc4c3)c3c(N)ncnc32)COC1 [Compound 25, 3-(2-Cyclopropoxyquinolin-6-yl)-1-((3-methyloxetan-3-yl)methyl)-1H-pyrazolo[3,4-d]pyrimidin-4-amine]	> 10	> 10	–	–	> 10	–	–
Nc1ncnc2c1c(-c1ccc3nc(OC4CC4)ccc3c1)nn2CC1CCOCC1 [Compound 29, 3-(2-Cyclopropoxyquinolin-6-yl)-1-((tetrahydro-2H-pyran-4-yl)methyl)-1H-pyrazolo[3,4-d]pyrimidin-4-amine]	> 10	> 10	17 (≈ 7.08 µg/mL)	< 20	> 10	–	–
CCOc1ccc2cc(-c3nn(CC(C)(C)O)c4ncnc(N)c34)ccc2c1 [Compound 30, 1-(4-Amino-3-(6-ethoxynaphthalen-2-yl)-1H-pyrazolo[3,4-d]pyrimidin-1-yl)-2-methylpropan-2-ol]	> 10	> 10	–	–	> 10	–	–
CC(C)(O)Cn1nc(-c2ccc3nc(OC4CC4)ccc3c2)c2c(N)ncnc21 [Compound 33, 1-(4-Amino-3-(2-cyclopropoxyquinolin-6-yl)-1H-pyrazolo[3,4-d]pyrimidin-1-yl)-2-methylpropan-2-ol]	> 10	–	–	–	> 10	–	1.33
CC(C)(CO)Cn1nc(-c2ccc3nc(OCC(F)(F)F)ccc3c2)c2c(N)ncnc21 [Compound 36, 3-(4-Amino-3-(2-(2,2,2-trifluoroethoxy)quinolin-6-yl)-1H-pyrazolo[3,4-d]pyrimidin-1-yl)-2,2-dimethylpropan-1-ol]	–	> 10	–	–	–	–	–

Second part, led by results:

GI50 (HepG2) [µM]	IC50 (Src) [µM]	solubility [1] [µM]	solubility (physchem) [µM]	SMILES	GI50 (CRL-8155) [µM]	lower activity against hERG than 1 (hERG) [fold]	EC50 (in vitro) [µM]
> 10	> 10	–	–	CCOc1ccc2cc(-c3nn(CC4CNC4)c4ncnc(N)c34)ccc2c1 [Compound 5]	> 10	–	–
> 10	–	–	–	CCOc1ccc2cc(-c3nn(CC4CN(C(C)=O)C4)c4ncnc(N)c34)ccc2c1 [Compound 9]	> 10	–	–
> 10	> 10	–	–	CN1CCC(Cn2nc(-c3ccc4cc(OCC5CC5)ccc4c3)c3c(N)ncnc32)CC1 [Compound 10, 3-(6-(Cyclopropylmethoxy)naphthalen-2-yl)-1-((1-methylpiperidin-4-yl)methyl)-1H-pyrazolo[3,4-d]pyrimidin-4-amine]	> 10	–	–
–	> 10	–	–	CCOc1ccc2cc(-c3nn(CC4CCN(C)CC4)c4ncnc(N)c34)ccc2n1 [Compound 17, 3-(2-Ethoxyquinolin-6-yl)-1-((1-methylpiperidin-4-yl)methyl)-1H-pyrazolo[3,4-d]pyrimidin-4-amine]	–	25	–
> 10	> 10	–	–	CN1CCC(Cn2nc(-c3ccc4nc(OC5CC5)ccc4c3)c3c(N)ncnc32)CC1 [Compound 19, 3-(2-Cyclopropoxyquinolin-6-yl)-1-((1-methylpiperidin-4-yl)methyl)-1H-pyrazolo[3,4-d]pyrimidin-4-amine]	–	–	–
> 10	> 10	–	–	CC(C)Cn1nc(-c2ccc3nc(OC4CC4)ccc3c2)c2c(N)ncnc21 [Compound 23, 3-(2-Cyclopropoxyquinolin-6-yl)-1-isobutyl-1H-pyrazolo[3,4-d]pyrimidin-4-amine]	> 10	–	–
> 10	> 10	–	–	CC1(Cn2nc(-c3ccc4cc(OC5CC5)ccc4c3)c3c(N)ncnc32)COC1 [Compound 24, 3-(6-Cyclopropoxynaphthalen-2-yl)-1-((3-methyloxetan-3-yl)methyl)-1H-pyrazolo[3,4-d]pyrimidin-4-amine]	> 10	–	–
> 10	> 10	–	–	CCOc1ccc2cc(-c3nn(CC4CCOCC4)c4ncnc(N)c34)ccc2c1 [Compound 26]	> 10	–	–
> 10	> 10	–	–	CCOc1ccc2cc(-c3nn(CC4CCOCC4)c4ncnc(N)c34)ccc2n1 [Compound 27]	> 10	–	–
> 10	–	–	–	Nc1ncnc2c1c(-c1ccc3cc(OC4CC4)ccc3c1)nn2CC1CCOCC1 [Compound 28, 3-(6-Cyclopropoxynaphthalen-2-yl)-1-((tetrahydro-2H-pyran-4-yl)methyl)-1H-pyrazolo[3,4-d]pyrimidin-4-amine]	> 10	–	–
> 10	> 10	–	–	CCOc1ccc2cc(-c3nn(CC(C)(C)O)c4ncnc(N)c34)ccc2n1 [Compound 31, 1-(4-Amino-3-(2-ethoxyquinolin-6-yl)-1H-pyrazolo[3,4-d]pyrimidin-1-yl)-2-methylpropan-2-ol]	> 10	–	–
> 10	> 10	–	–	Nc1ncnc2c1c(-c1ccc3cc(OC4CC4)ccc3c1)nn2CC(O)(C(F)(F)F)C(F)(F)F [Compound 37, 2-((4-Amino-3-(6-cyclopropoxynaphthalen-2-yl)-1H-pyrazolo[3,4-d]pyrimidin-1-yl)methyl)-1,1,1,3,3,3-hexafluoropropan-2-ol]	> 10	–	–
